Results published in patent US6620403B2, “In vivo chemosensitivity screen for human tumors” (priority 2000, dated 2003).
Where “and” joins values, the source holds several entries; their conditions need not be identical. Equal values may be shown once.

What was measured:
[1] = system: human NSCLC heterotransplants; assay: Paclitaxel treatment and tumor response of human NSCLC heterotransplants grown subcutaneously in nude mice; assay type: in vivo
Procedure: The in vivo sensitivity to paclitaxel was studied in 34 successfully grown heterotransplants. The paclitaxel was intravenously administered to each mouse at a dosage rate of 60 mg/kg every 3 weeks. Treatment was initiated when the tumors reached a size of about 5 mm in diameter and strict standard clinical criteria (>50% tumor shrinkage) were used to define the tumor response. The heterotransplants were morphologically very similar to the original tumors. The response rate to paclitaxel was 21% (95% Cl 9-38%) which is equivalent to that reported in Phase II studies in patients with advanced NSCLC treated with paclitaxel alone. Tumor heterotransplants are thus proposed as relevant models to evaluate new potential anti-tumor agents for treatment of different cancers and to predict clinical response in individual patients. It is noted that the type of tumor utilized for evaluating chemosensitivity to anti-tumor agents comprises a range of cancers including, but not limited to, colon, head and neck, brain, melanoma, sarcoma, breast, ovarian, prostate, kidney and stomach cancers.
The fresh tumor samples were cut into 2-3 mm^3 pieces in sterile saline. Three or four pieces of non-necrotic tissue were injected subcutaneously into the lower back and anterior chest of 6 to 8 week old female Nu/Nu mice using a biomedical stainless steel implant needle and maintained under standardized conventional conditions. Animals transplanted with NSCLC tumors were checked for tumor growth over a 36 week period. Tumor formation measuring at least 5 mm in diameter was considered a positive take. Tumor formation was confirmed histologically in all cases. Temporary growth was defined as tumor formation followed by spontaneous regression before reaching a diameter of 5 mm. All other incidences were considered no growth.
The therapeutic experiments were designed as a standard Phase II clinical study with a target response rate of 20%, the only difference being that the tumor response was assessed as the average of two animals rather than in a single subject as in the case of a human Phase II trial.
The tumor grown after implantation from human to mouse was resected and cut into pieces following the same procedure used for the original tumor sample as previously described above, and transplanted subcutaneously into several animals. Tumors from the first mouse to mouse passage were allowed to grow until reaching 5 mm in diameter, at which time the animals were split into two groups: 1) control group—no treatment; and 2) treated group. The treated group was administered 60 mg/kg paclitaxel intravenously as a bolus in the tail vein. Tumor measurements were performed twice a week and the tumor volume was calculated using the formula, a×b^2/2 (a=longest diameter and b=shortest diameter). Partial tumor response was defined as an average reduction in the tumor volume of at least 50% in the animals of the treated group compared to the tumor volume measured in animals of the control group. Complete tumor response was defined as complete disappearance of the palpable tumor in both animals of the […].

[2] = system: human NSCLC heterotransplants; assay: as above; assay type: in vivo; remark: listed apart in the source
NSCLC = conditions: single agent, cited from earlier work
[3] = First mouse to mouse passage, after second dose (day 21), 16 heterotransplants, number of responses (%)

**Q.** Which results are given for `CC(=O)O[C@H]1C(=O)[C@@]2(C)[C@H]([C@H](OC(=O)c3ccccc3)[C@]3(O)C[C@H](OC(=O)[C@H](O)[C@@H](NC(=O)c4ccccc4)c4ccccc4)C(C)=C1C3(C)C)[C@]1(OC(C)=O)CO[C@@H]1C[C@@H]2O` [paclitaxel]?
**A.** non-responders to one dose achieving a partial response after the second dose ([1]; 12 heterotransplants that did not respond with one dose): None; partial responses after one dose ([1]; 16 heterotransplants given two doses, 4/16, 95% CI 7%-52%): 25%; partial responses converted into complete response after two doses ([1]; 16 heterotransplants, second dose on day 21, number out of 4 partial responses): Three; effect of second dose on overall response rate ([1]; 16 heterotransplants, second dose on day 21 versus single dose): did not change the overall response rate; response rate ([1]; 21 heterotransplants, first mouse to mouse passage, 95% CI 8%-47%): 24%; overall response rate ([1]; 34 heterotransplants, first mouse to mouse passage, one single dose 60 mg/kg i.v., 95% CI 9-38%): 21%; Tumor Response/(%) Complete ([1]; Adenocarcinoma, first mouse to mouse passage, 11 heterotransplants, single dose 60 mg/kg i.v.): 0; Tumor Response/(%) Partial ([1]; Adenocarcinoma, first mouse to mouse passage, 11 heterotransplants, single dose 60 mg/kg i.v., number of responses (%)): 1 (9%); Tumor Response/(%) Complete ([1]; First mouse to mouse passage, after first dose, 16 heterotransplants): 0; Tumor Response/(%) Partial ([1]; First mouse to mouse passage, after first dose, 16 heterotransplants, number of responses (%)): 4 (24%); Tumor Response/(%) Complete [1, 3]: 3 (18%); Tumor Response/(%) Partial [1, 3]: 1 (6%); Tumor Response/(%) Complete ([1]; First passage, 21 heterotransplants tested on both first and second mouse to mouse passages): 0; Tumor Response/(%) Partial ([1]; First passage, 21 heterotransplants tested on both first and second mouse to mouse passages, number of responses (%)): 5 (24%); Tumor Response/(%) Partial ([1]; Neuroendocrine carcinoma, first mouse to mouse passage, 1 heterotransplant, single dose 60 mg/kg i.v., number of responses): 1; Tumor Response/(%) Complete ([1]; Second passage, 21 heterotransplants tested on both first and second mouse to mouse passages): 0; Tumor Response/(%) Complete ([1]; Squamous carcinoma, first mouse to mouse passage, 20 heterotransplants, single dose 60 mg/kg i.v.): 0; Tumor Response/(%) Partial ([1]; Squamous carcinoma, first mouse to mouse passage, 20 heterotransplants, single dose 60 mg/kg i.v., number of responses (%)): 4 (20%); Tumor Response/(%) Complete ([1]; TOTAL, first mouse to mouse passage, 34 heterotransplants, single dose 60 mg/kg i.v., number of responses (%)): 0 (0%); Tumor Response/(%) Partial ([1]; TOTAL, first mouse to mouse passage, 34 heterotransplants, single dose 60 mg/kg i.v., number of responses (%), 60 mg/kg): 7; Tumor Response/(%) Partial ([1]; TOTAL, first mouse to mouse passage, 34 heterotransplants, single dose 60 mg/kg i.v., number of responses (%), listed as Paclitaxel, 60 mg/kg): 7 (21%); Tumor Response/(%) Partial ([1]; Undifferentiated carcinoma, first mouse to mouse passage, 2 heterotransplants, single dose 60 mg/kg i.v., number of responses): 1; response rate ([2]; 21 heterotransplants, second mouse to mouse passage, 95% CI 11%-52%): 29%; Tumor Response/(%) Partial ([2]; Second passage, 21 heterotransplants tested on both first and second mouse to mouse passages, number of responses (%)): 6 (29%); response rate in the individual Phase II studies (NSCLC; each of four Phase II studies, previously untreated NSCLC patients): 10% and 21% and 24% and 38%; reported overall response rate (NSCLC; four Phase II studies, total of 160 previously untreated NSCLC patients): 24%
